Results: ChEMBL document CHEMBL6127124, “Structure-Activity Relationships and Discovery of (S)-5-(tert-Butyl)-11-(difluoromethoxy)-9-methoxy-2-oxo-1,2,5,6-tetrahydropyrido[2',1':2,3]imidazo[4,5-h]quinoline-3-carboxylic Acid (AB-161), a Novel Orally Available and Liver-Centric HBV RNA Destabilizer” (J Med Chem, 2024)

What was measured:
[1] = Drug concentration in Beagle dog plasma at 10 mg/kg, po measured for 12 hrs by LC-MS/MS analysis; type: ADME, organism-based, Canis lupus familiaris; settings: read-out: Ct
Hepatitis B virus [2] = assay: Antiviral activity against HBV genotype D in immuno-competent C57BL/6 mouse model of chronic HBV assessed as log10 reduction in HBsAg production at 3 mg/kg, po qd for 7 days measured 24 hrs post-last dose by EIA (reference value: 0.67); type: functional; settings: time 8 day
[3] = Metabolic stability in Beagle dog liver microsomes assessed as clearance at 0.3 uM preincubated for 5 mins followed by NADPH addition measured upto 60 mins by LC-MS/MS analysis; type: ADME, Canis lupus familiaris, Microsome; settings: read-out: CLH
Hepatitis B virus [4] = assay: Antiviral activity against HBV genotype D in immuno-competent C57BL/6 mouse model of chronic HBV assessed as log10 reduction in HBsAg production at 10 mg/kg, po qd for 7 days measured 24 hrs post-last dose by EIA (reference value: 0.98); type: functional; settings: time 8 day
[5] = Drug concentration in CD-1 mouse liver at 10 mg/kg, po measured for 24 hrs by LC-MS/MS analysis; type: ADME, organism-based; settings: read-out: Ct
[6] = AUC (0 to 24 hrs) in CD-1 mouse at 0.2 mg/kg, po measured for 24 hrs by LC-MS/MS analysis; type: ADME, organism-based; settings: in vivo
[7] = Drug concentration in CD-1 mouse lung at 10 mg/kg, po measured for 24 hrs by LC-MS/MS analysis; type: ADME, organism-based; settings: read-out: Ct
[8] = Ratio of total drug concentration in liver to plasma in CD-1 mouse at 0.2 mg/kg, po measured for 24 hrs by LC-MS/MS analysis; type: ADME, organism-based; settings: CD-1, mouse, liver and plasma
Cytochrome P450 1A2 = target: T1, Cytochrome P450 1A2 (Homo sapiens, UniProt P05177); assay: Inhibition of CYP1A2 in human liver microsomes using phenacetin as substrate preincubated for 30 min followed by NADPH addition measured after 12 mins by LC-MS/MS analysis; type: ADME, Microsome
T1 sequence (P05177 whole entry): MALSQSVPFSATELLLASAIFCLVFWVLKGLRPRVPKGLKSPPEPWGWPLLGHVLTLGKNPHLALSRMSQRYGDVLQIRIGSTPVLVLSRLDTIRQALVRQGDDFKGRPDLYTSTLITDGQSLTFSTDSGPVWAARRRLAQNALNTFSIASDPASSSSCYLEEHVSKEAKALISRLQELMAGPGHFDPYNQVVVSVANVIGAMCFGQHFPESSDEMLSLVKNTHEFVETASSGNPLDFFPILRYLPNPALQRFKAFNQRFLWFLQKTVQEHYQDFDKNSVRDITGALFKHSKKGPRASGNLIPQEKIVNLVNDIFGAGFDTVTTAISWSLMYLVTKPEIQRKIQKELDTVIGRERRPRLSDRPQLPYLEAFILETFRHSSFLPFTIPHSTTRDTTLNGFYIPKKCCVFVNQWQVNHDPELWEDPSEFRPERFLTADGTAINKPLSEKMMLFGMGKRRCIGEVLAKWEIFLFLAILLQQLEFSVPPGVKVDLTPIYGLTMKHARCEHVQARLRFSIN

Cytochrome P450 2C19 = Cytochrome P450 2C19 (Homo sapiens, UniProt P33261); assay: Inhibition of CYP2C19 in human liver microsomes using S-mephenytoin as substrate preincubated for 30 min followed by NADPH addition measured after 12 mins by LC-MS/MS analysis; type: ADME, Microsome
[9] = Ratio of drug concentration in heart to plasma of Sprague-Dawley rat at 5 mg/kg, po measured for 24 hrs by LC-MS/MS analysis; type: ADME, organism-based
Cytochrome P450 3A4 = Cytochrome P450 3A4 (Homo sapiens, UniProt P08684); assay: Inhibition of CYP3A4 in human liver microsomes using testosterone as substrate preincubated for 30 min followed by NADPH addition measured after 12 mins by LC-MS/MS analysis; type: ADME, Microsome
[10] = Drug concentration in CD-1 mouse heart at 10 mg/kg, po measured for 24 hrs by LC-MS/MS analysis; type: ADME, organism-based; settings: read-out: Ct
[11] = Ratio of drug concentration in lung to plasma of Sprague-Dawley rat at 5 mg/kg, po measured for 24 hrs by LC-MS/MS analysis; type: ADME, organism-based
[12] = Drug concentration in Sprague-Dawley rat plasma at 5 mg/kg, po measured for 24 hrs by LC-MS/MS analysis; type: ADME, organism-based; settings: read-out: Ct
[13] = Ratio of drug concentration in kidney to plasma of CD-1 mouse at 10 mg/kg, po measured for 24 hrs by LC-MS/MS analysis; type: ADME, organism-based; settings: kidney and plasma
[14] = Drug concentration in Sprague-Dawley rat heart at 5 mg/kg, po measured for 24 hrs by LC-MS/MS analysis; type: ADME, organism-based
[15] = Selectivity ratio of drug concentration in liver in CD-1 mouse at 0.2 mg/kg, po measured for 24 hrs to EC90 for antiviral activity against HBV infected in human HepG2.2.15 cells assessed as reduction in HBsAg level; type: ADME, organism-based; settings: in vivo
Cytochrome P450 2D6 = Cytochrome P450 2D6 (Homo sapiens, UniProt P10635); assay: Inhibition of CYP2D6 in human liver microsomes using dextromethorphan as substrate preincubated for 30 min followed by NADPH addition measured after 12 mins by LC-MS/MS analysis; type: ADME, Microsome
Hepatitis B virus [16] = assay: Antiviral activity against HBV genotype D in immuno-competent C57BL/6 mouse model of chronic HBV assessed as log10 reduction in serum HBsAg production at 30 mg/kg, po qd for 14 days measured 24 hrs post-last dose by EIA relative to control; type: functional; settings: time 15 day
[17] = Drug concentration in CD-1 mouse kidney at 10 mg/kg, po measured for 24 hrs by LC-MS/MS analysis; type: ADME, organism-based; settings: read-out: Ct
[18] = Selectivity ratio of drug concentration in liver in CD-1 mouse at 0.2 mg/kg, po measured for 12 hrs to EC90 for antiviral activity against HBV infected in human HepG2.2.15 cells assessed as reduction in HBsAg level; type: ADME, organism-based; settings: in vivo
[19] = Drug concentration in Sprague-Dawley rat kidney at 5 mg/kg, po measured for 24 hrs by LC-MS/MS analysis; type: ADME, organism-based; settings: read-out: Ct
Cytochrome P450 2C9 = Cytochrome P450 2C9 (Homo sapiens, UniProt P11712); assay: Inhibition of CYP2C9 in human liver microsomes using diclofenac as substrate preincubated for 30 min followed by NADPH addition measured after 12 mins by LC-MS/MS analysis; type: ADME, Microsome
[20] = Ratio of total drug concentration in liver to plasma in CD-1 mouse at 0.2 mg/kg, po measured for 12 hrs by LC-MS/MS analysis; type: ADME, organism-based; settings: liver and plasma
[21] = Ratio of drug concentration in lung to plasma of CD-1 mouse at 10 mg/kg, po measured for 24 hrs by LC-MS/MS analysis; type: ADME, organism-based; settings: lung and plasma
[22] = Drug concentration in Sprague-Dawley rat lung at 5 mg/kg, po measured for 24 hrs by LC-MS/MS analysis; type: ADME, organism-based
[23] = Ratio of drug concentration in kidney to plasma of Sprague-Dawley rat at 5 mg/kg, po measured for 24 hrs by LC-MS/MS analysis; type: ADME, organism-based; settings: kidney and plasma
[24] = Ratio of drug concentration in heart to plasma of CD-1 mouse at 10 mg/kg, po measured for 24 hrs by LC-MS/MS analysis; type: ADME, organism-based; settings: heart and plasma
[25] = in vivo, po, 5 mg/kg, 24 h, BLD = below limit of detection

Cytochrome P450 3A4, sequence (P08684 whole entry): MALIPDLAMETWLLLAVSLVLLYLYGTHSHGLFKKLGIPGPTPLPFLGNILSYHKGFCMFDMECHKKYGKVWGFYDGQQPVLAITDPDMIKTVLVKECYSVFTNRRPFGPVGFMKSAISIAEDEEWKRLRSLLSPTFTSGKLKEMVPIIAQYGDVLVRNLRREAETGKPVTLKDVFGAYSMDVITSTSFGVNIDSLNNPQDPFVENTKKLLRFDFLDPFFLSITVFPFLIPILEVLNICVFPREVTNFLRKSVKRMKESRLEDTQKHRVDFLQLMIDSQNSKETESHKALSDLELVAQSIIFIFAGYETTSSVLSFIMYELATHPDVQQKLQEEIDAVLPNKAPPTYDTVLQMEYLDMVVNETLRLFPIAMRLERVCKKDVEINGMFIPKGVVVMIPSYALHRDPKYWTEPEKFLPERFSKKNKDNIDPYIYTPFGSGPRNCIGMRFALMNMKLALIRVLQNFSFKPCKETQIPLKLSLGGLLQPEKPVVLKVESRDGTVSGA
Cytochrome P450 2C19, sequence (P33261 whole entry): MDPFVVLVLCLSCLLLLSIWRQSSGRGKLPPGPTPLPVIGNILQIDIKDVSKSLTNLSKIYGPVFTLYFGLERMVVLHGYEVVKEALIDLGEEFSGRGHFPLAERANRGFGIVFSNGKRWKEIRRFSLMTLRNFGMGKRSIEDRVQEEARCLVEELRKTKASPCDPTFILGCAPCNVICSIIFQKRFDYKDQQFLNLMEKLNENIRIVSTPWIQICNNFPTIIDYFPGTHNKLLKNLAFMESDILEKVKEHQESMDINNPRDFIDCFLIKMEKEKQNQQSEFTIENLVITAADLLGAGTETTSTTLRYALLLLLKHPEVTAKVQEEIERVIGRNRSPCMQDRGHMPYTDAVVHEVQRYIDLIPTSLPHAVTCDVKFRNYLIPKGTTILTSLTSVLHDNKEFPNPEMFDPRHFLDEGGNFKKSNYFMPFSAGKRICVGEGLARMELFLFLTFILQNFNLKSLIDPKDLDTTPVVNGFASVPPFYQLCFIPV
Cytochrome P450 2D6, sequence (P10635 whole entry): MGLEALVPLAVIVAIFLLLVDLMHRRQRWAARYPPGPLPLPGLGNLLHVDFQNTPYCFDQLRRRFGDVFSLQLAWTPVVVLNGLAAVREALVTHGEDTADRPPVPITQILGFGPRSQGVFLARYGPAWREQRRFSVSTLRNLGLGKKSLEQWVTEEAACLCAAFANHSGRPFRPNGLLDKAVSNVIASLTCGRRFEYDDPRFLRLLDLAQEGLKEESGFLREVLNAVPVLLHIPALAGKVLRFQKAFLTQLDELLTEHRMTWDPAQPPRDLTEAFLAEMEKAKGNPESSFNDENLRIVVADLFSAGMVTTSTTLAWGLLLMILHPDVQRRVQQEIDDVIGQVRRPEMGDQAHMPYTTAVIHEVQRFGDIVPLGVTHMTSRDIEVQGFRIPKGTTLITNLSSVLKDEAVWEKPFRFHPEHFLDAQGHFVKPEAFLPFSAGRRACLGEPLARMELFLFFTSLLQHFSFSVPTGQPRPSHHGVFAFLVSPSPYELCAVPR
Cytochrome P450 2C9, sequence (P11712 whole entry): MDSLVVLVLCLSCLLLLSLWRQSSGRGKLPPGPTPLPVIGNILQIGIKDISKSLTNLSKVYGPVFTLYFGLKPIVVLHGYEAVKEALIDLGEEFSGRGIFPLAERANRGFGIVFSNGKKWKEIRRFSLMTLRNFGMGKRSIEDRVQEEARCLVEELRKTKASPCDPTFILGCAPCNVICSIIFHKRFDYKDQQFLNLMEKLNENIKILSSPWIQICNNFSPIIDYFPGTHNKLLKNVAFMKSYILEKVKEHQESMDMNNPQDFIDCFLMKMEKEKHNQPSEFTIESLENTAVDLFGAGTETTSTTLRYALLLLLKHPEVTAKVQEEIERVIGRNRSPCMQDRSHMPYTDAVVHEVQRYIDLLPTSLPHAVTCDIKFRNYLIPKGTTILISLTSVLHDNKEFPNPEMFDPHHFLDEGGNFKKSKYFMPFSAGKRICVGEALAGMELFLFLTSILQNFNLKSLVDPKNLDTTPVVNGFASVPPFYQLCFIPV

Row | SMILES | concentration at 12 h [1] [ng/g] | log(activity) (Hepatitis B virus [2]) | microsomal CLint at 0.3 µM [3] [µL/min/mg] | log(activity) (Hepatitis B virus [4]) | concentration at 24 h [5] [ng/g] | AUC(0-t) at 24 h [6] [ng·h/mL] | concentration at 24 h [7] [ng/g] | Kp at 24 h [8] | IC50 (Cytochrome P450 1A2) [µM] | IC50 (Cytochrome P450 2C19) [µM] | IC50 (Cytochrome P450 3A4) [µM] | concentration at 24 h [10] [ng/g] | concentration at 24 h [12] [ng/g] | Kp at 24 h [13] | Ratio [15] | IC50 (Cytochrome P450 2D6) [µM] | log(activity) (Hepatitis B virus [16]) | concentration at 24 h [17] [ng/g] | Ratio [18] | concentration at 24 h [19] [ng/g] | other results
1 | COCCCOc1cc2c(nc1OC)-c1cc(=O)c(C(=O)O)cn1[C@H](C(C)C)C2 | 48.3 | 0.68 | 4 | 0.7 | 87 | – | – | – | – | – | – | – | – | – | – | – | – | – | – | – | –
2 | COc1cc(OC(F)F)c2nc3c(n2c1)C[C@@H](C(C)(C)C)c1cc(C(=O)O)c(=O)[nH]c1-3 | 272 | 0.8 | 6 | 0.67 | 10400 | 148 | 25 | 116 | > 25 | 21 | > 25 | 15 | 0.7 | 1.3 | 40 | > 25 | 0.94 | 71 | 166 | 5.5 | Ratio [9, 25]: Bld; Ratio [11, 25]: Bld; Ct [14, 25]: Bld; IC50 (Cytochrome P450 2C9): 22 µM; Kp at 12 h [20]: 284; Kp at 24 h [21]: 0.4; Ct [22, 25]: Bld; Kp at 24 h [23]: 7.9; Kp at 24 h [24]: 0.3
3 | CC(C)(C)[C@@H]1Cc2c(nc3c(C(F)(F)F)cc(C4CC4)cn23)-c2[nH]c(=O)c(C(=O)O)cc21 | 110 | – | – | – | 5740 | 273 | 35 | 97 | > 25 | 22 | > 25 | 15 | 6.7 | 0.3 | 51 | > 25 | 1.35 | 23 | 572 | 6 | Kp at 24 h ([9]; Sprague-Dawley, heart and plasma): 0.2; Kp at 24 h ([11]; Sprague-Dawley, lung and plasma): 0.7; concentration at 24 h ([14]; Sprague-Dawley, heart, read-out: Ct): 1.3 ng/g; IC50 (Cytochrome P450 2C9): 21 µM; Kp at 12 h [20]: 120; Kp at 24 h [21]: 0.4; concentration at 24 h ([22]; Sprague-Dawley, lung, read-out: Ct): 5 ng/g; Kp at 24 h [23]: 0.9; Kp at 24 h [24]: 0.2
